Results on one molecule are retold here after patent EP4792811A1, “S1PR4 REGULATOR COMPOUND FOR MUSCLE DISEASE TREATMENT AND APPLICATION THEREOF” (Shengyuan Zetong (Shanghai) Pharmaceutical Co., Ltd, priority 2023, dated 2025).

Data set [1] concerns the target T1, S1PR2 (Homo sapiens, UniProt O95136).
T1 construct: expressed in transfected cells; host or cells: CHO
The experiment in a line: FLIPR assay, S1PR2-CHO cell line. It counts as cell-based. How it is done:
(§1) ^a β-arrestin recruitment activity based on Tango-S1PR1-CHO-K1 and Tango-S1PR4-CHO-K1 cells, expressed as mean EC50 values ± SD. ^b FLIPR assays were performed using S1PR2-CHO and S1PR5-CHO cell lines, expressed as mean EC50 values ± SD. ^c β-arrestin recruitment activity based on PathHunter CHO-K1-S1PR3 cells, expressed as mean EC50 values ± SD. Data are the mean of at least two independent determinations, reported as mean ± SD (standard deviation).

Data set [2] has as its target T2, hS1P1 (Homo sapiens, UniProt P21453).
T2 construct: expressed in transfected cells; host or cells: CHO-K1
The experiment in a line: Tango β-arrestin recruitment assay, Tango-hS1P1-CHO. The data set is classed as cell-based. The conditions noted are these: selectivity table; Tango-S1PR1-CHO-K1 cells. Summed up: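 CHO-K1 cells co-express receptor–V2 tail–NTEV–tTA, CTEV–truncated β-arrestin 2 and a tTA-driven luciferase reporter. 10,000 cells/well were plated for 20 h, then treated 20 h with 9 five-fold dilutions from 45 µM final, with luminescence read-out. BAF-312 positive control was 1 µM for S1P1 and 25 µM for S1P4. EC50 is mean ± SD, ≥2 determinations.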
For orientation: Activated receptors often draw arrestin, which recruitment assays turn into a signal.

For data set [3], the system named is Duchenne muscular dystrophy model mice. The experiment in a line: In vivo pharmacodynamic test in Duchenne muscular dystrophy model mice (Compound 30). The conditions noted are these: for serum creatine kinase level: after treatment. How it is done: Experimental Animals: A total of 35 Duchenne muscular dystrophy model mice were divided into 6 groups as shown below.
Intragastric administration was initiated from Day 0. Body weight was measured daily during the experiment to adjust the drug dosage. Grip strength tests were performed every 2 days to observe changes in the mice's grip strength until the experiment concluded on Day 21. Changes in the limb grip strength, serum creatine kinase content, and muscle fibrosis/inflammation in the mice were detected as indicators for evaluating drug efficacy.
The mouse was placed horizontally on the grip test board. The mouse's tail was held and pulled gently in the opposite direction without using excessive force. The tail was gradually pulled until the mouse released the grip force sensor. The maximum value recorded by the grip force sensor is the grip strength. The test was repeated for 3 times and the average value was taken.
After the completion of administration, blood was collected via the orbital sinus, allowed to stand for 30 minutes, centrifuged at 3000 rpm at 4°C for 15 minutes, and serum was extracted, stored frozen at -20°C, and detected in accordance with the kit instructions.
After the experiment, the tibialis anterior, extensor digitorum longus, and diaphragm of the mice were harvested, fixed, sectioned, and subjected to HE staining and Sirius Red staining to observe the degree of muscle fibrosis. The slice was subjected to immunofluorescence staining with F4/80 to observe the level of muscle inflammation.

The target of data set [4] is T3, S1PR3 (Homo sapiens, UniProt Q99500).
T3 construct: expressed in transfected cells; host or cells: PathHunter CHO-K1
T3 sequence (Q99500 whole entry): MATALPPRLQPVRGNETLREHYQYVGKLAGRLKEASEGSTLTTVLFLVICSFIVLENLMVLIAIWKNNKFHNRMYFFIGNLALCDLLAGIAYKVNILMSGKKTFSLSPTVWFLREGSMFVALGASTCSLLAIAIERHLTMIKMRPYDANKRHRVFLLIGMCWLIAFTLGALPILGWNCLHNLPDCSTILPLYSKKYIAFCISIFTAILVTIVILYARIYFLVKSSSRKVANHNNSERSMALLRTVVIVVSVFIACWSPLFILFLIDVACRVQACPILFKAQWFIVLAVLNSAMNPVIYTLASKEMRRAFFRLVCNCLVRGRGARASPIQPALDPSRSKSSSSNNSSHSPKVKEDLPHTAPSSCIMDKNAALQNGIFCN
The experiment in a line: β-arrestin recruitment, PathHunter CHO-K1-S1PR3 cells. It counts as cell-based. The protocol:
as §1

[5] abbreviates: compared with the endogenous ligand S1P.
Setting [6] is: 0.3 mg/kg intragastric once daily.
Setting [7] is: 0.3 mg/kg intragastric once daily, compared with the model group.
Where [8] appears, read: 1 mg/kg intragastric once daily.
Where [9] appears, read: 3 mg/kg intragastric once daily.

T1 sequence (O95136 whole entry, species assumed): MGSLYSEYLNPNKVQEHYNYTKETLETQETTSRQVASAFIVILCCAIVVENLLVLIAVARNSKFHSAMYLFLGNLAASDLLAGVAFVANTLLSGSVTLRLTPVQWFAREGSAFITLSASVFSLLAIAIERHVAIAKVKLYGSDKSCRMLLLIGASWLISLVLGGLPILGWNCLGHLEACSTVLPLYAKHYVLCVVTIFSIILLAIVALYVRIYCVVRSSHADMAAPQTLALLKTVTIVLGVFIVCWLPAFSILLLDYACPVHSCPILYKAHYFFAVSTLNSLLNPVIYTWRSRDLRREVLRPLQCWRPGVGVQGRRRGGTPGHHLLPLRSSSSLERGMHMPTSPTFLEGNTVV
T2 sequence (P21453 whole entry): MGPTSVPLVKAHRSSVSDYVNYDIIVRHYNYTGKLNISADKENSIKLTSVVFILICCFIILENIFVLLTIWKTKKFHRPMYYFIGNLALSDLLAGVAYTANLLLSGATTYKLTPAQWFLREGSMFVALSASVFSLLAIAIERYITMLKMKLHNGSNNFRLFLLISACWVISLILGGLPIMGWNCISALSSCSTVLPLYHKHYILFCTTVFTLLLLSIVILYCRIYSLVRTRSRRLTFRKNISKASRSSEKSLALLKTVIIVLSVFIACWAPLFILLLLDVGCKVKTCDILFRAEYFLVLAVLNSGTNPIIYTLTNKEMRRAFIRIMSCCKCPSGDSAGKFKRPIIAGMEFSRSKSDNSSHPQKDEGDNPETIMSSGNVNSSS

By Emax is commonly meant the maximal effect, on the per cent scale that the assay sets. `CCc1cc(/C(C)=N/OCc2ccc(-c3ccccc3)c(C)c2)ccc1CN1CC[C@H](C(=O)O)C1` [Compound 30]: the “agonist activity on S1PR2” value in data set [1] (setting [5]) is given as “no agonist activity”. The Emax is -6.9% in data set [1] (selectivity table, FLIPR, S1PR2-CHO); 102% in data set [2]; 2.25% in data set [4] (selectivity table, PathHunter CHO-K1-S1PR3). Besides, the “collagen deposition (collagen area ratio)” value in data set [3] (setting [6]), in data set [3] (setting [8]) and in data set [3] (setting [9]) was “significantly reduced collagen deposition” in each case. The “serum creatine kinase level” value in data set [3] (setting [6]), in data set [3] (setting [8]) and in data set [3] (setting [9]) was “significantly reduced” throughout. The “body weight growth trend” value was “no difference” in data set [3] (setting [7]); “no difference” in data set [3] (1 mg/kg intragastric once daily, compared with the model group); “relatively slow” in data set [3] (3 mg/kg intragastric once daily, compared with the other groups). Further, the “number of centrally nucleated fibers (HE staining)” value in data set [3] (setting [7]) was “no significant difference”; in data set [3] (setting [8]), “significantly reduced”; in data set [3] (setting [9]) it was “significantly reduced”. Further, the “macrophage content (F4/80 immunofluorescence, muscle inflammation)” value in data set [3] (setting [8]) and in data set [3] (setting [9]) was “significantly reduced macrophage content” each time. The “increase in grip strength (ratio of grip strength to body weight)” value in data set [3] (3 mg/kg intragastric once daily, first 14 days) is given as “most significant”. Further, in data set [4] (setting [5]), the “agonist activity on S1PR3” value was “no agonist activity”.
